Laboratory results taken from patent US20200297601A1, “COMPOSITION FOR SKIN MOISTURIZATION OR SKIN WHITENING, CONTAINING PENTACYCLIC TRITERPENE CAFFEIC ACID ESTERS” (AMOREPACIFIC CORPORATION, priority 2016, published 2020).

Tested on: filaggrin
Experiment: Immunofluorescent staining and imaging of filaggrin in artificial skin
Type: cell-based
Details: artificial skin (AmoreReskin) surface treated for 4 days, FIG. 3
Protocol: The skin moisturizing effect of Example 1 and Example 4 was evaluated by immunofluorescent staining and imaging of filaggrin which is known as an important skin moisturizing factor.
The surface of artificial skin (AmoreReskin™) was treated with 2 ppm ceramide PC 104, Example 1 and Example 4 for 4 days and then immunofluorescent staining was conducted. The immunofluorescent staining was conducted as follows.
i. Artificial skin is immersed in OCT solution (optimal cutting temperature, Tissue Tek) and stored at −70° C.
ii. The artificial skin is prepared into 10-μm thick sections using a cryotome and fixed on a slide.
iii. Lines are drawn around the artificial skin sections using a PAP pen.
iv. The slide is dried at room temperature for at least 8 hours.
v. The artificial skin sections are washed with PBS and […] in OCT solution.
vi. The artificial skin sections are treated with a blocking solution (1% BSA in PBS) for 30 minutes.
vii. The sections are treated with anti-filaggrin antibody (ab24584, Abcam) for 2 hours.
viii. The sections are treated with Texas Red anti-rabbit antibody (T6391, Life technologies) diluted to 1:200 in a blocking solution for 1 hour.
ix. The sections are stained with DAPI (4′,6-diamidino-2-phenylindole) for 5 minutes.
x. The sections are washed with PBS 3 times.
xi. […]

Question: With “3β,23,28-Trihydroxy-12-oleanene 23-caffeate [Example 1]” as the substance, how does the “filaggrin protein (immunofluorescence)” value read?
Answer: significantly increased
